Experimental data reported in US20220213086A1, “AZOLE COMPOUNDS AS IRAK INHIBITORS, PREPARATION METHODS AND MEDICINAL USES THEREOF” (Eternity Bioscience Inc., priority 2020, published 2022).
Where two headings read alike, the source gives them in different places.

How the values were obtained:
[1] = biological target: T1, full length human IRAK4 protein (Homo sapiens, UniProt Q9NWZ3); experiment: IRAK4 biochemical assay (Promega ADP-Glo IRAK4 Kinase Enzyme System); settings: 3 nM enzyme, 2 μM MBP, 250 μM ATP, 60 min at room temperature
T1 construct: Purified full length human IRAK4 protein; purchased Signal Chem 1112-10G-125
T1 sequence (Q9NWZ3 1-460): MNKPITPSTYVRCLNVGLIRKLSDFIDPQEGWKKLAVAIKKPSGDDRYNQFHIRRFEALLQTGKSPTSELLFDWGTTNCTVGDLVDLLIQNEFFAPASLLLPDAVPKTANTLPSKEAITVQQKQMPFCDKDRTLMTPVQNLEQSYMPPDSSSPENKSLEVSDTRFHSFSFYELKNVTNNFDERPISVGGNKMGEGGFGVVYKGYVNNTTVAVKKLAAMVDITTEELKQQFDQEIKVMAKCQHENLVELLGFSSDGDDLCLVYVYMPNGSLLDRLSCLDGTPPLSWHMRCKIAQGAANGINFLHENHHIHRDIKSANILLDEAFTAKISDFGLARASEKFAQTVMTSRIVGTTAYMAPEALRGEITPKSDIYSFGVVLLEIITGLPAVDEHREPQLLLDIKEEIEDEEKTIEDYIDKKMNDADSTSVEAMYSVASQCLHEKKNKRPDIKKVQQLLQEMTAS
Procedure: For the routine compound screening, an IRAK4 kinase assay was performed as follows using Promega ADP-Glo IRAK4 Kinase Enzyme System (Promega, Cat #2198-AD). Purified full length human IRAK4 protein (Signal Chem; Cat #1112-10G-125) was diluted to a concentration 6 nM in assay buffer (25 mM MOPS, pH 7.2, 12.5 mM β-glycerol-phosphate, 25 mM MgCl2, 5 mM EGTA, 2 mM EDTA, 0.0025% Brij-35, add 0.25 mM DTT to Kinase Assay Buffer prior to use) containing IRAK4 inhibitor at 2× the final concentration in 0.4% DMSO. The reaction was performed in PerkinElmer Proxiplate-384 plus white plate (Fisher Scientific, Cat #50-905-2761) and started by the addition of an equal volume of the assay buffer containing 4 μM native swine myelin basic protein (MBP) and 500 μM ATP to achieve a final concentration of 3 nM enzyme, 2 μM MBP, 250 μM ATP, 1×compound, and 0.2% DMSO. The kinase reaction was allowed to run for 60 min at room temperature (25-27° C.), then 5 μL of ADP-Glo was added to the reaction in each well followed by 40 minutes-incubation at RT. To detect converted ATP, 10 μL Detection Buffer was added into each well and Incubate at RT in dark for 30 minutes. Finally, luminescence was read using Tecan with 1000 ms of integration time. The luminescent signal positively correlates with ADP amount and kinase activity. Data was analyzed by GraphPad Prism and IC50 was calculated using function log(inhibitor) vs. response—Variable slope (four parameters). Percentage of inhibition was calculated as below:
% inhibition=(1−(Reading(Sample)−Reading(Negative Control))/(Reading(Positive Control)−Reading(Negative Control)))×100%
The 0% inhibition value comes from the Reading of Positive Control wells having 0 nM compound. The 100% inhibition value comes from the Reading of Negative Control wells having no IRAK4 kinase.

[2] = test system: IRAK4 (TNFα in human peripheral blood mononuclear cells); experiment: IRAK4 human PBMC TNFα cell based assay (AlphaLISA); settings: TNFα readout
Procedure: In this assay, serially diluted compounds were incubated with 1×10^4 human peripheral blood mononuclear cells (PBMCs) from STEMCELL (Cat #70025.1) per well of 384-well plate (Fisher Scientific; 50-905-2761) and cultured with TexMACS medium (Miltenyi, Cat #130-097-196), stimulated by R848 (0.5 μM) or IL-1β (10 ng/ml). Plates were covered with lids and incubated for 4 h (R848, Fisher Scientific, Cat #NC9801605) or 24 h (IL-1β, Fisher Scientific, Cat #ENRIL1BI) at 37° C. in a humidified tissue-culture incubator. After a brief centrifugation at 1000 rpm for 5 minutes, 5 μl of culture medium was used for the measurement of the TNFα amount using TNFα (human) AlphaLISA Detection Kit (PerkinElmer, Cat #AL208C) according to manufacturer's protocol. A biotinylated anti-TNFα antibody binds to the Streptavidin-coated Donor beads while another anti-TNFα antibody is conjugated to AlphaLISA Acceptor beads. In the presence of the TNFα, the beads come into close proximity. The excitation of the Donor beads causes the release of singlet oxygen molecules that triggers a cascade of energy transfer in the Acceptor beads, resulting in a sharp peak of light emission at 615 nm. AlphaLISA assay plates were read using PHERAstar. Percentage of inhibition was calculated as below:
% inhibition=(1−(Reading(Sample)−Reading(Negative Control))/(Reading(Positive Control)−Reading(Negative Control)))×100% […]

| IC50 [1] [nM] | IRAK4 Biochemical Assay Max Inhibition (%) [1] [%] | IC50 ([2]; human PBMCs stimulated by IL-1β (10 ng/ml), 24 h, read-out: IRAK4 PBMC AlphaLISA IL-1β (IC50)) [nM] | IC50 ([2]; human PBMCs stimulated by R848 (0.5 μM), 4 h, read-out: IRAK4 PBMC AlphaLISA R848 (IC50)) [nM] | Structure (SMILES) |
| --- | --- | --- | --- | --- |
| 240 | 98.0 |  |  | COc1cc2c(OC[C@@H]3CCC(=O)N3)nsc2cc1C(N)=O [Example 1, (S)-5-methoxy-3-((5-oxopyrrolidin-2-yl)methoxy)benzo[d]isothiazole-6-carboxamide] |
| 14 | 93.0 | 26 | 21 | CC[C@@H]1[C@H](F)C(=O)N[C@@H]1COc1nsc2cc(C(N)=O)c(OC)cc12 [Example 2] |
